Data on two compounds can be found in BindingDB's records for doi:10.1016/j.ejmech.2014.01.004 (Future University, 2014).

As usually defined, the IC50 is the concentration that gives 50% inhibition.

Molecules are shown by their SMILES.

This test deals with T1, Dihydrofolate reductase (Bos taurus, UniProt P00376).
T1 sequence (P00376 whole entry): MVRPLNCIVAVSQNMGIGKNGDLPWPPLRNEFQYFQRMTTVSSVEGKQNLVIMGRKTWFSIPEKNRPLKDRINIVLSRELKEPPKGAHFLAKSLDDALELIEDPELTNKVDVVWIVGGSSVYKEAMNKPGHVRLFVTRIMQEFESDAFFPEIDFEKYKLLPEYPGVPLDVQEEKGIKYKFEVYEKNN
Description: Inhibition of bovine liver DHFR measured for every 1 min of 10 mins.

`Clc1cc2c(cc1Cl)N=C(c1ccc(Br)cc1)C1CCCC(=Cc3ccc(Br)cc3)C1=N2` (configuration not stated) gave an IC50 of 100 nM. In the case of `COc1ccc(C=C2CCCC3C2=Nc2cc(C)c(C)cc2N=C3c2ccc(OC)cc2)cc1` (configuration not stated) it was 100 nM.
